Assay results reported in ChEMBL document CHEMBL3885881, “DrugMatrix”.

Species on record: Rattus norvegicus
Test: DrugMatrix - Regimen: Daily Repeat
Format: toxicity, organism-based, Sprague-Dawley
Set-up: regimen Daily Repeat, gender Male, age 6-8 weeks
Conditions: in vivo, po, route oral GAVAGE, […]; for ABSOLUTE BASOPHIL / ABSOLUTE EOSINOPHIL / ABSOLUTE LYMPHOCYTE / ABSOLUTE MONOCYTE / ABSOLUTE SEGMENTED NEUTROPHIL / BASOPHIL / EOSINOPHIL / ERYTHROCYTE COUNT / HEMATOCRIT / HEMOGLOBIN / LEUKOCYTE COUNT / LYMPHOCYTE / MEAN CORPUSCULAR HEMOGLOBIN / MEAN CORPUSCULAR HEMOGLOBIN CONCENTRATION / MEAN CORPUSCULAR VOLUME / MONOCYTE / NEUTROPHIL / NUCLEATED RED BLOOD CELLS / PLATELET COUNT: tissue Blood; for ALANINE AMINOTRANSFERASE / ALBUMIN / ALKALINE PHOSPHATASE / ASPARTATE AMINOTRANSFERASE / BLOOD UREA NITROGEN / CARBON DIOXIDE / CHLORIDE / CHOLESTEROL / CREATINE PHOSPHOKINASE / CREATININE / GLUCOSE / LACTATE DEHYDROGENASE / LIPASE / PHOSPHORUS / POTASSIUM / SODIUM / TOTAL BILIRUBIN / TOTAL PROTEIN / URIC ACID: tissue Plasma
[1] = 40 mg/kg, 72 h, dose level Low, time 3 day
[2] = 40 mg/kg, 120 h, dose level Low, time 5 day
[3] = 450 mg/kg, 72 h, dose level High, time 3 day
[4] = 450 mg/kg, 120 h, dose level High, time 5 day

CC(c1cc2ccccc2s1)N(O)C(N)=O (configuration not stated) [ZILEUTON]
ABSOLUTE BASOPHIL [1]: 0 CELLS/uL
ABSOLUTE EOSINOPHIL [1]: 103.33 CELLS/uL
ABSOLUTE LYMPHOCYTE [1]: 13682 CELLS/uL
ABSOLUTE MONOCYTE [1]: 0 CELLS/uL
ABSOLUTE SEGMENTED NEUTROPHIL [1]: 1348 CELLS/uL
BASOPHIL [1]: 0%
EOSINOPHIL [1]: 0.67%
ERYTHROCYTE COUNT [1]: 5.58 x10E6/uL
HEMATOCRIT [1]: 34.97%
HEMOGLOBIN [1]: 13.77 G/DL
LEUKOCYTE COUNT [1]: 15.13 x10E3/uL
LYMPHOCYTE [1]: 90.33%
MEAN CORPUSCULAR HEMOGLOBIN [1]: 24.67 pg
MEAN CORPUSCULAR HEMOGLOBIN CONCENTRATION [1]: 39.37 G/DL
MEAN CORPUSCULAR VOLUME [1]: 62.67 fL
MONOCYTE [1]: 0%
NEUTROPHIL [1]: 9%
NUCLEATED RED BLOOD CELLS [1]: 0 /100WBC
PLATELET COUNT [1]: 1217.67 x10E3/uL
ALANINE AMINOTRANSFERASE [1]: 75.33 u/L
ALBUMIN [1]: 3.93 G/DL
ALKALINE PHOSPHATASE [1]: 442 u/L
ASPARTATE AMINOTRANSFERASE [1]: 87.67 u/L
BLOOD UREA NITROGEN [1]: 14 mg/dL
CARBON DIOXIDE [1]: 32.33 mmol/L
CHLORIDE [1]: 100 MEQ/L
CHOLESTEROL [1]: 66.67 mg/dL
CREATINE PHOSPHOKINASE [1]: 201.33 u/L
CREATININE [1]: 0.14 mg/dL
GLUCOSE [1]: 160 mg/dL
LACTATE DEHYDROGENASE [1]: 148.33 u/L
LIPASE [1]: 10.67 u/L
PHOSPHORUS [1]: 10.8 mg/dL
POTASSIUM [1]: 6.7 MEQ/L
SODIUM [1]: 140.3 MEQ/L
TOTAL BILIRUBIN [1]: 0.17 mg/dL
TOTAL PROTEIN [1]: 5.37 G/DL
URIC ACID [1]: 1.53 mg/dL
ABSOLUTE BASOPHIL [2]: 0 CELLS/uL
ABSOLUTE EOSINOPHIL [2]: 0 CELLS/uL
ABSOLUTE LYMPHOCYTE [2]: 9935.67 CELLS/uL
ABSOLUTE MONOCYTE [2]: 247 CELLS/uL
ABSOLUTE SEGMENTED NEUTROPHIL [2]: 1084 CELLS/uL
BASOPHIL [2]: 0%
EOSINOPHIL [2]: 0%
ERYTHROCYTE COUNT [2]: 5.6 x10E6/uL
HEMATOCRIT [2]: 34.1%
HEMOGLOBIN [2]: 13.83 G/DL
LEUKOCYTE COUNT [2]: 11.27 x10E3/uL
LYMPHOCYTE [2]: 89%
MEAN CORPUSCULAR HEMOGLOBIN [2]: 24.77 pg
MEAN CORPUSCULAR HEMOGLOBIN CONCENTRATION [2]: 40.57 G/DL
MEAN CORPUSCULAR VOLUME [2]: 60.97 fL
MONOCYTE [2]: 2%
NEUTROPHIL [2]: 9%
NUCLEATED RED BLOOD CELLS [2]: 0 /100WBC
PLATELET COUNT [2]: 1094 x10E3/uL
ALANINE AMINOTRANSFERASE [2]: 62 u/L
ALBUMIN [2]: 4.23 G/DL
ALKALINE PHOSPHATASE [2]: 479.33 u/L
ASPARTATE AMINOTRANSFERASE [2]: 79.33 u/L
BLOOD UREA NITROGEN [2]: 13.67 mg/dL
CARBON DIOXIDE [2]: 32 mmol/L
CHLORIDE [2]: 100.67 MEQ/L
CHOLESTEROL [2]: 62 mg/dL
CREATINE PHOSPHOKINASE [2]: 165.33 u/L
CREATININE [2]: 0.2 mg/dL
GLUCOSE [2]: 145 mg/dL
LACTATE DEHYDROGENASE [2]: 111.67 u/L
LIPASE [2]: 11 u/L
PHOSPHORUS [2]: 10.6 mg/dL
POTASSIUM [2]: 6.47 MEQ/L
SODIUM [2]: 141.17 MEQ/L
TOTAL BILIRUBIN [2]: 0.17 mg/dL
TOTAL PROTEIN [2]: 5.67 G/DL
URIC ACID [2]: 1.47 mg/dL
ABSOLUTE BASOPHIL [3]: 0 CELLS/uL
ABSOLUTE EOSINOPHIL [3]: 0 CELLS/uL
ABSOLUTE LYMPHOCYTE [3]: 15031 CELLS/uL
ABSOLUTE MONOCYTE [3]: 0 CELLS/uL
ABSOLUTE SEGMENTED NEUTROPHIL [3]: 1769 CELLS/uL
BASOPHIL [3]: 0%
EOSINOPHIL [3]: 0%
ERYTHROCYTE COUNT [3]: 5.39 x10E6/uL
HEMATOCRIT [3]: 32.93%
HEMOGLOBIN [3]: 13.6 G/DL
LEUKOCYTE COUNT [3]: 16.8 x10E3/uL
LYMPHOCYTE [3]: 89.33%
MEAN CORPUSCULAR HEMOGLOBIN [3]: 25.27 pg
MEAN CORPUSCULAR HEMOGLOBIN CONCENTRATION [3]: 41.33 G/DL
MEAN CORPUSCULAR VOLUME [3]: 61.1 fL
MONOCYTE [3]: 0%
NEUTROPHIL [3]: 10.67%
NUCLEATED RED BLOOD CELLS [3]: 0.33 /100WBC
PLATELET COUNT [3]: 1249 x10E3/uL
ALANINE AMINOTRANSFERASE [3]: 87.67 u/L
ALBUMIN [3]: 3.67 G/DL
ALKALINE PHOSPHATASE [3]: 458 u/L
ASPARTATE AMINOTRANSFERASE [3]: 128 u/L
BLOOD UREA NITROGEN [3]: 17.67 mg/dL
CARBON DIOXIDE [3]: 25.33 mmol/L
CHLORIDE [3]: 103.67 MEQ/L
CHOLESTEROL [3]: 65.67 mg/dL
CREATINE PHOSPHOKINASE [3]: 774.33 u/L
CREATININE [3]: 0.18 mg/dL
GLUCOSE [3]: 148.33 mg/dL
LACTATE DEHYDROGENASE [3]: 301.67 u/L
LIPASE [3]: 10.67 u/L
PHOSPHORUS [3]: 12.57 mg/dL
POTASSIUM [3]: 5.93 MEQ/L
SODIUM [3]: 142.9 MEQ/L
TOTAL BILIRUBIN [3]: 0.2 mg/dL
TOTAL PROTEIN [3]: 5.13 G/DL
URIC ACID [3]: 1.47 mg/dL
ABSOLUTE BASOPHIL [4]: 0 CELLS/uL
ABSOLUTE EOSINOPHIL [4]: 45 CELLS/uL
ABSOLUTE LYMPHOCYTE [4]: 16299.33 CELLS/uL
ABSOLUTE MONOCYTE [4]: 207.67 CELLS/uL
ABSOLUTE SEGMENTED NEUTROPHIL [4]: 1114.67 CELLS/uL
BASOPHIL [4]: 0%
EOSINOPHIL [4]: 0.33%
ERYTHROCYTE COUNT [4]: 5.62 x10E6/uL
HEMATOCRIT [4]: 34.17%
HEMOGLOBIN [4]: 13.87 G/DL
LEUKOCYTE COUNT [4]: 17.67 x10E3/uL
LYMPHOCYTE [4]: 92.33%
MEAN CORPUSCULAR HEMOGLOBIN [4]: 24.73 pg
MEAN CORPUSCULAR HEMOGLOBIN CONCENTRATION [4]: 40.6 G/DL
MEAN CORPUSCULAR VOLUME [4]: 60.87 fL
MONOCYTE [4]: 1%
NEUTROPHIL [4]: 6.33%
NUCLEATED RED BLOOD CELLS [4]: 0 /100WBC
PLATELET COUNT [4]: 1205.33 x10E3/uL
ALANINE AMINOTRANSFERASE [4]: 64.33 u/L
ALBUMIN [4]: 4.1 G/DL
ALKALINE PHOSPHATASE [4]: 388 u/L
ASPARTATE AMINOTRANSFERASE [4]: 79.33 u/L
BLOOD UREA NITROGEN [4]: 16 mg/dL
CARBON DIOXIDE [4]: 37.67 mmol/L
CHLORIDE [4]: 99.33 MEQ/L
CHOLESTEROL [4]: 79 mg/dL
CREATINE PHOSPHOKINASE [4]: 125 u/L
CREATININE [4]: 0.15 mg/dL
GLUCOSE [4]: 142 mg/dL
LACTATE DEHYDROGENASE [4]: 75 u/L
LIPASE [4]: 10.33 u/L
PHOSPHORUS [4]: 10.97 mg/dL
POTASSIUM [4]: 6.65 MEQ/L
SODIUM [4]: 142.6 MEQ/L
TOTAL BILIRUBIN [4]: 0.2 mg/dL
TOTAL PROTEIN [4]: 5.8 G/DL
URIC ACID [4]: 1.7 mg/dL
